US8242087B2, “Phosphate modified nucleosides useful as substrates for polymerases and as antiviral agents” (priority 2007, dated 2012)

What was measured:
[1] = target: T1, HIV reverse transcriptase (HIV RT) (Human immunodeficiency virus type 1 group M subtype B, UniProt P03366); experiment: Single nucleotide incorporation by HIV RT, gel-based, P1/T1 (Examples 2-3); assay type: biochemical, HIV-1
T1 construct: HIV RT polymerase was purchased from GE Healthcare; purchased GE Healthcare (Amersham Bioscience)
Procedure: (§1) A typical single nucleotide incorporation and primer extension assays using HIV RT polymerase was carried out similar to one described in the literature. HIV RT polymerase was purchased from GE Healthcare and was supplied as either 12 or 30 U/μL stock solution. The final concentration of HIV RT in a reaction mixture was 0.03-0.003 U/μL. A primer/template duplex mixture was prepared by combining appropriate amounts of a 5′-^33P-labeled primer (P1) and a template in 1:2 molar ratio to provide a 4× solution with 0.5 μM primer concentration. The polymerase reactions were carried out in a 5×RT buffer containing 250 mM TRIS.HCL, 250 mM KCl, 50 mM MgCl2, 2.5 mM spermidine, 50 mM DTT, pH 8.3. For the single nucleotide incorporation assay, a P1/T1 primer-template pair was used whereas the primer extension study was performed with P1/T3 and P1/T5 primer-template pairs.
Briefly, a mixture containing 5 μL of the 4× primer/DNA duplex solution and 5 μL of 4× polymerase solution was pre-incubated at 37° C. for 2 minutes to ensure formation a DNA polymerase/DNA duplex complex. Simultaneously, 2× solutions of dNTP to provide final concentrations of 100 μM, 200 μM, 500 μM and 1 mM were also pre-incubated at 37° C. for 2 minutes as well. The polymerase reaction in a total volume of 20 μL was initiated by addition of 10 μL of the 2× dNTP solution to the DNA polymerase/DNA duplex mixture. The reactions were run at 37° C. and aliquots (2.5 μL) were removed at specified time points and mixed with 10 μL of a quenching buffer containing 80% formamide, 2 mM EDTA, 1×TBE. Quenched reactions were analyzed by loading 2 μL of a reaction sample onto a 20% denaturing polyacrylamide:gel (19:1 acrylamide:bisacrylamide, 7M urea, 0.4 mm×30 cm×40 cm) made in 1×TBE buffer (90 mM Tris-borate, 2 mM EDTA, pH 8.3). The gel was pre-equilibrated for 2 hours before loading and the reactions were run along with a tracking dye marker containing bromophenol blue (BB) and xylene cyanol (XC) until the BB dye had run ⅔ of the total gel length. For visualization, gels were scanned using a Cyclone Phosphoroimager.

KF (exo−) DNA polymerase = target: T2, KF (exo−) DNA polymerase (Escherichia coli, UniProt P00582, D355A/E357A); experiment: Single nucleotide incorporation by KF (exo−) DNA polymerase; assay type: biochemical; conditions: 60 minutes
T2 construct: Klenow Fragment (KF) (exo^−) DNA polymerase
T2 sequence (P00582 324-928 D355A/E357A): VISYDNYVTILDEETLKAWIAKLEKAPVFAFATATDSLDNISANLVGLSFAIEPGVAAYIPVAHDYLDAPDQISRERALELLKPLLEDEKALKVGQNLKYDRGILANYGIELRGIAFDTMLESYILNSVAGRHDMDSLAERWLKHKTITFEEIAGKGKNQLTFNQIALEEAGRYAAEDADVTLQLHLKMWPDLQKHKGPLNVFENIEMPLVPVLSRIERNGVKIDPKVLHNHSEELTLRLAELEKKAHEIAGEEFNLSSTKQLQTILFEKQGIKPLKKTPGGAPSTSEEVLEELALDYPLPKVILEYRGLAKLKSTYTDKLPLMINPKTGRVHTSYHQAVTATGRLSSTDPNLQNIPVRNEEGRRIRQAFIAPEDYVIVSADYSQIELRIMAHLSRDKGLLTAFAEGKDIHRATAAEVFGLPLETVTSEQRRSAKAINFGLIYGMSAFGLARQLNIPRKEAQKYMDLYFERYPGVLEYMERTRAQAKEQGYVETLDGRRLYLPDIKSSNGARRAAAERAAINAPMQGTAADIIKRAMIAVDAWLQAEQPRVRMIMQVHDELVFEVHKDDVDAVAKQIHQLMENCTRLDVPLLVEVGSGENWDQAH
Procedure: (§2) Reaction conditions: Primer (P1) was 5′-labeled with ^33P followed by annealing to a template T1; 125 nM primer/template (P1/T1), [Taq]=0.005 U/μL, [Vent]=0.005 U/μL, [KF]=0.05 U/μL; time intervals: 5, 15, 30, 60, 90 and 120 minutes.

Taq DNA polymerase = Taq DNA polymerase (Thermus aquaticus, UniProt P19821); experiment: Single nucleotide incorporation by Taq DNA polymerase; assay type: biochemical
Taq DNA polymerase, sequence (P19821 whole entry): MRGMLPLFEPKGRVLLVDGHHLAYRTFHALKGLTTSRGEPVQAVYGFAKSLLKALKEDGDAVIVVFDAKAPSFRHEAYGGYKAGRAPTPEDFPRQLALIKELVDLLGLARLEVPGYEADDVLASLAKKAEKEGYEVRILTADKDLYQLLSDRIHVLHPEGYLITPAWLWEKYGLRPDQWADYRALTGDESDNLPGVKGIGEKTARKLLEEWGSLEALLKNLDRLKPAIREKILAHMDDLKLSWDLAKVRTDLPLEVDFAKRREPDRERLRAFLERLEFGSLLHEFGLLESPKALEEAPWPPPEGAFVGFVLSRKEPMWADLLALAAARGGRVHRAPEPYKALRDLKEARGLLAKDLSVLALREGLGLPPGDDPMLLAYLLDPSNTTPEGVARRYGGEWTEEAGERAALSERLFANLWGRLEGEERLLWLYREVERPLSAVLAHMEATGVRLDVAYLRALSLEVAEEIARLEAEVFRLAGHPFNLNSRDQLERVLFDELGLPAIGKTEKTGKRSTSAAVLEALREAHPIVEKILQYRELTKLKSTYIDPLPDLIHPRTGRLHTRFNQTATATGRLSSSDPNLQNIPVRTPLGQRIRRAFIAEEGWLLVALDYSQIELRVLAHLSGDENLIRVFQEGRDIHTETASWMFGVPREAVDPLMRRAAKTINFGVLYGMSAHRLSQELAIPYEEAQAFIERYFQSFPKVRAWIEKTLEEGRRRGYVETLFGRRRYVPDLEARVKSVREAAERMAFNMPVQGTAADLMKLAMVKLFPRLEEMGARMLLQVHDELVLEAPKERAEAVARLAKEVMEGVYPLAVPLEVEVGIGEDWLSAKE
Procedure: as §2
In the case of Therminator DNA polymerase, the enzyme was obtained from Westburg (NEB) (2 U/μL) and the reactions were carried out in a 10× Thermopol reaction buffer containing 20 mM TRIS.HCl, 10 mM KCl, 2 mM MgSO4, 0.1% Triton X-100, pH 8.8. The final concentration of the Therminator DNA pol in the reaction mixture was 8.33×10^−4 U/μL. The polymerase reaction involving Therminator DNA polymerase or any other thermostable polymerase (Vent (exo^−), Taq DNA polymerase) was carried out in a similar way as the HIV RT reaction with some modifications. The dNTP solutions and the primer/template/DNA polymerase mixture solutions were topped with mineral oil (30-60 μL) and pre-incubated at 70° C. for 2 minutes. The polymerase reactions were performed at 70° C. as well.

HIV RT [2] = target: T3, HIV RT (Human immunodeficiency virus type 1 group M subtype B, UniProt P03366); experiment: Primer extension by HIV RT (P1/T3, P1/T5); assay type: biochemical, HIV-1; conditions: T3 template
T3 construct: HIV RT polymerase was purchased from GE Healthcare; purchased GE Healthcare (Amersham Bioscience)
Procedure: as §1
Primer extension study with HIV RT and Therminator DNA polymerase was performed in a fashion similar to the single nucleotide incorporation experiments. Two sets of primer/template complexes were used: P1/T3 and P1/T5.

HIV RT [3] = target: T3, HIV RT; experiment: Steady state kinetics of single nucleotide incorporation by HIV RT (P1/T1); assay type: biochemical, HIV-1
Procedure: The steady steate kinetics of a single nucleotide incorporation of an amino acid phosphoramidate (AA-dAMP) and of a natural nucleoside triphosphate (dATP) was determined by the gel-based polymerase assay. In all the experiments, the template T1 and the primer P1 were used (Table 1). The primer and template in 1:2 molar ratio were hybridized in a buffer containing 20 mM TRIS.HCl, 10 mM KCl, 2 mM MgSO4, 0.1% Triton X-100, pH 8.8 and used in an amount to provide 125 nM concentration of the primer in each 12 μL reaction. The range of concentrations for amino acid phosphoramidates was optimized according to a Km value for the incorporation of an individual nucleotide. In the case of HIV RT (Amersham Bioscience (GE Healthcare), 30 U/μL), reaction mixtures containing the enzyme in concentration to attain 5-20% conversion and appropriate substrate concentration (nucleoside phosphoramidate or natural dNTP) were incubated at 37° C. and run for 8-10 different time intervals. Kinetic analysis of single nucleotide incorporation by Therminator DNA polymerase (NEB, 2 U/μL) was performed similarly except the incubations and polymerase reactions, which were carried out at 70° C. To prevent solvent condensation/evaporation, the reaction mixtures were topped with mineral oil. The reactions were quenched by addition of the buffer containing 80% formamide, 2 mM EDTA, 1×TBE buffer. The analysis of polymerase reactions was performed by polyacrylamide gel electrophoresis (20% (19:1 mono:bis), 7M urea, 30 cm×40 cm×0.4 mm). The relative band intensities were measured using OptiQuant software. The rates of incorporation (V) were calculated based on the percentage of the extension production (n+1 band). The kinetic parameters (Vmax and Km) were determined by plotting V (pmol/min·U) versus substrate concentration and fitting the data point to a rectangular hyperbola using GraphPad Prism software.

[4] = target: T4, HIV reverse transcriptase (Human immunodeficiency virus type 1 group M subtype B, UniProt P03366); experiment: Gel-based single-nucleotide-incorporation and control assays with HIV RT (Example 4); assay type: biochemical, HIV-1; conditions: P1/T2; 9 incorporated first (two hours), then compound 1 added, two more hours
T4 construct: performed for the enzyme HIV reverse transcriptase (GE Healthcare, 30 U/4 stock solution); purchased GE Healthcare

2′-deoxy-adenosine-5′-aspartyl-phosphoramidate [Compound 1]
conversion to a n+1 strand ([1]; 500 μM nucleotide concentration, 60 min, P1/T1): 90%
incorporation ([1]; substrate concentration decreased 10 fold (from 500 μM)): 24.1%
conversion of the primer strand (KF (exo−) DNA polymerase): 32.5%
insertion into a growing primer strand (Taq DNA polymerase): failed to insert
primer extension product (HIV RT [2]): extend a primer with three adenine nucleobases (n+3 product)
(n+3) product (HIV RT [2]; 60 minutes, 500 μM substrate): 5.2%
n+2 product (HIV RT [2]; 60 minutes, 500 μM substrate): 56.3%
Km, fold higher as compared to dATP (HIV RT [3]): 400 fold
Vmax, fold lower than natural substrate dATP (HIV RT [3]): 3 fold
specificity (Vmax/Km), fold reduced vs natural substrate (HIV RT [3]): 1300 fold
Km (HIV RT [3]; P1/T1, 37° C.): 185 ± 24.5 µM
Vmax (HIV RT [3]; P1/T1, 37° C.): 2.63 ± 0.13 pmol/min · U
n+1 product [4]: 20%
n+2 product [4]: 80%
